Laboratory results from patent US10774051B2, “6-membered heterocyclic derivatives and pharmaceutical composition comprising the same” (Shionogi & Co., Ltd., priority 2015, dated 2020).
pIC50: −log10 of the molar value.

Target: human P2X7 receptor (Homo sapiens, UniProt Q99572, R270H/Y155H)
Assay: Evaluation of human P2X7 receptor inhibitory activity (Yo-Pro uptake, BzATP stimulation, FLIPR TETRA)
Type: cell-based
Settings: 1321N1 cells stably expressing human P2X7 receptor; BzATP stimulation, Yo-Pro uptake; read-out: IC50 (antagonistic activity for the human P2X7 receptor)
How it was run: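 Yo-Pro dye uptake triggered by BzATP was monitored by FLIPR in human P2X7-transfected 1321N1 cells (SNP variant) in HEPES-buffered HBSS, pH 7.4-7.5. Compound was dispensed 8 min post-stimulation, then signal read for 20 min; IC50 derived logistically from inhibition of the fluorescence range.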

Compound | pIC50
Cc1ccc(-c2nnco2)cc1Nc1nc(=O)c(F)cn1Cc1cc(F)c(F)c(F)c1 [Compound I-1216] | 8.22
Cc1c(Nc2nc(=O)cnn2Cc2cc(F)c(F)c(F)c2)ccc2[nH]ccc12 [Compound I-1263] | 8.52
Cc1nc2cc(C)c(Nc3nc(=O)c(C)nn3Cc3cc(F)c(F)c(F)c3)cc2s1 [Compound I-1267] | 8.00
COc1cn(Cc2cc(F)c(F)c(F)c2)c(Nc2cc3sc(C)nc3cc2C)nc1=NC#N [Compound I-1285] | 7.57

Same assay, conditions: antagonistic activity for the human P2X7 receptor; read-out: IC50

Compound | pIC50
COCCOc1cc(Nc2nc(=O)c(F)cn2Cc2cc(F)c(F)c(F)c2)c(C)cc1F [Compound I-1204] | > 8.00
Cc1ccc(OCCO)cc1Nc1nc(=O)c(F)cn1Cc1cc(F)c(F)c(F)c1 [Compound I-1205] | > 8.00
Cc1cc(Nc2nc(=O)c(F)cn2Cc2cc(F)cc(F)c2)c(C)cc1Cl [Compound I-1206] | > 8.00
Cc1cc(Nc2nc(=O)c(F)cn2Cc2cc(F)c(F)c(F)c2)c(C)cc1Cl [Compound I-1207] | > 8.00
CCc1cc(F)ccc1Nc1nc(=O)c(F)cn1Cc1cc(F)c(F)c(F)c1 [Compound I-1208] | > 8.00
Cc1ccc(Cl)cc1Nc1nc(=O)c(F)cn1Cc1cc(F)c(F)c(F)c1 [Compound I-1209] | > 8.00
Cc1cc(OC(F)F)c(C)cc1Nc1nc(=O)c(F)cn1Cc1cc(F)c(F)c(F)c1 [Compound I-1210] | > 8.00
CCc1cc(F)c(OC)cc1Nc1nc(=O)c(F)cn1Cc1cc(F)c(F)c(F)c1 [Compound I-1211] | > 8.00
Cc1cc(S(C)(=O)=O)cc(Nc2nc(=O)c(F)cn2Cc2cc(F)c(F)c(F)c2)c1C [Compound I-1212] | > 8.00
Cc1c(F)cccc1Nc1nc(=O)c(F)cn1Cc1ccc(F)c(Cl)c1 [Compound I-1213] | > 8.00
CCc1cc(OC)ccc1Nc1nc(=O)c(F)cn1Cc1cc(F)cc(F)c1 [Compound I-1214] | > 8.00
CCOc1ccc(F)c(Nc2nc(=O)c(F)cn2Cc2cc(F)c(F)c(F)c2)c1 [Compound I-1215] | > 8.00
CCOc1ccc(Cl)c(Nc2nc(=O)c(F)cn2Cc2cc(F)c(F)c(F)c2)c1 [Compound I-1217] | > 8.00
CCc1ccc(F)c(Nc2nc(=O)c(F)cn2Cc2cc(F)c(F)c(F)c2)c1 [Compound I-1218] | > 8.00
Cc1c(Cl)cccc1Nc1nc(=O)c(F)cn1Cc1cc(F)c(F)c(F)c1 [Compound I-1219] | > 8.00
CCc1cc(OC)c(OC)cc1Nc1nc(=O)c(F)cn1Cc1cc(F)c(F)c(F)c1 [Compound I-1220] | > 8.00
Cc1ccc(-c2cccn(C)c2=O)cc1Nc1nc(=O)c(F)cn1Cc1cc(F)c(F)c(F)c1 [Compound I-1221] | > 8.00
C=C1C(c2cc(Nc3nc(=O)c(F)cn3Cc3cc(F)c(F)c(F)c3)c(C)cc2F)=CC=CN1C [Compound I-1222] | > 8.00
CCOc1c(C)cccc1Nc1nc(=O)c(F)cn1Cc1cc(F)c(F)c(F)c1 [Compound I-1223] | > 8.00
Cc1cc(Nc2nc(=O)c(F)cn2Cc2cc(F)cc(F)c2)c(Cl)cc1F [Compound I-1224] | > 8.00
Cc1cc(Nc2nc(=O)c(F)cn2Cc2cc(F)c(F)c(F)c2)c(Cl)cc1F [Compound I-1225] | > 8.00
CCc1ccc(C)c(Nc2nc(=O)c(F)cn2Cc2cc(F)c(F)c(F)c2)c1 [Compound I-1226] | > 8.00
Cc1cc(Nc2nc(=O)c(F)cn2Cc2cc(F)c(F)c(F)c2)c(C)cc1F [Compound I-1227] | > 8.00
CCc1ccc(Nc2nc(=O)c(F)cn2Cc2cc(F)cc(F)c2)c(C)c1 [Compound I-1228] | > 8.00
COCCn1ccc2c(C)c(Nc3nc(=O)c(F)cn3Cc3cc(F)cc(F)c3)ccc21 [Compound I-1229] | > 8.00

Compound | pIC50
Cc1cc(C)c(OC(F)F)cc1Nc1nc(=O)c(F)cn1Cc1cc(F)c(F)c(F)c1 [Compound I-1230] | > 8.00
Cc1ccc(CF)cc1Nc1nc(=O)c(F)cn1Cc1cc(F)c(F)c(F)c1 [Compound I-1231] | > 8.00
COc1cc(C)c(C)c(Nc2nc(=O)c(F)cn2Cc2cc(F)cc(F)c2)c1 [Compound I-1233] | > 8.00
Cc1cc(Nc2nc(=O)c(F)cn2Cc2cc(F)cc(F)c2)c(C)nc1OC(F)F [Compound I-1234] | > 8.00
COc1cc(Nc2nc(=O)c(F)cn2Cc2cc(F)c(F)c(F)c2)c(C)nc1OC [Compound I-1235] | > 8.00
Cc1cc(CO)ccc1Nc1nc(=O)c(F)cn1Cc1cc(F)c(F)c(F)c1 [Compound I-1236] | > 8.00
Cc1cc(C(F)F)ccc1Nc1nc(=O)c(F)cn1Cc1cc(F)c(F)c(F)c1 [Compound I-1237] | > 8.00
Cc1cc(C)c(Nc2nc(=O)c(F)cn2Cc2cc(F)c(F)c(F)c2)cc1F [Compound I-1238] | > 8.00
COc1cc(Cl)c(Nc2nc(=O)c(F)cn2Cc2cc(F)c(F)c(F)c2)cc1F [Compound I-1239] | > 8.00
Cc1ccc(CF)cc1Nc1nc(=O)c(F)cn1Cc1cc(F)cc(F)c1 [Compound I-1240] | > 8.00
Cc1cc(N(C)C)ccc1Nc1nc(=O)c(F)cn1Cc1cc(F)cc(F)c1 [Compound I-1241] | > 8.00
Cc1cc(N(C)C)ccc1Nc1nc(=O)c(F)cn1Cc1cc(F)c(F)c(F)c1 [Compound I-1242] | > 8.00
COc1ccc(Nc2nc(=O)c(F)cn2Cc2cc(F)c(F)c(F)c2)c(OC)c1C [Compound I-1243] | > 8.00
Cc1cc(F)c(C)c(Nc2nc(=O)c(F)cn2Cc2cc(F)c(F)c(F)c2)c1 [Compound I-1244] | > 8.00
COc1ccc(Nc2nc(=O)c(F)cn2Cc2cc(F)c(F)c(F)c2)c(C)c1F [Compound I-1245] | > 8.00
COc1ccc(C)c(Nc2nc(=O)c(CO)nn2Cc2cc(F)c(F)c(F)c2)c1 [Compound I-1246] | > 8.00
COc1ccc(Nc2nc(=O)c(CO)nn2Cc2cc(F)c(F)c(F)c2)c(C)c1 [Compound I-1247] | > 8.00
COc1cc(C)c(Nc2nc(=O)c(CF)nn2Cc2cc(F)c(F)c(F)c2)cc1OC [Compound I-1248] | 7.00 to 8.00
COc1ccc(C)c(Nc2nc(=O)c(C(=O)O)nn2Cc2cc(F)c(F)c(F)c2)c1 [Compound I-1249] | 7.00 to 8.00
COc1ccc(Nc2nc(=O)c(C(=O)O)nn2Cc2cc(F)c(F)c(F)c2)c(C)c1 [Compound I-1250] | 6.30 to 7.00
COc1cc(C)c(Nc2nc(=O)c(C(=O)O)nn2Cc2cc(F)c(F)c(F)c2)cc1OC [Compound I-1251] | 7.00 to 8.00
CCOC(=O)c1nn(Cc2cc(F)c(F)c(F)c2)c(Nc2cc(OC)c(OC)cc2C)nc1=O [Compound I-1252] | 7.00 to 8.00
Cc1ccc(F)cc1Nc1nc(=O)c(CO)nn1Cc1cc(F)c(F)c(F)c1 [Compound I-1253] | 7.00 to 8.00
Cc1ccc(CO)cc1Nc1nc(=O)c(C)nn1Cc1cc(F)c(F)c(F)c1 [Compound I-1254] | > 8.00
Cc1ccc(CO)cc1Nc1nc(=O)cnn1Cc1cc(F)c(F)c(F)c1 [Compound I-1255] | > 8.00

Compound | pIC50
COc1cc(C)c(Nc2nc(=O)c(CO)nn2Cc2cc(F)c(F)c(F)c2)cc1OC [Compound I-1256] | 7.00 to 8.00
COc1cc(F)c(Nc2nc(=O)c(C)nn2Cc2cc(F)c(F)c(F)c2)cc1OC [Compound I-1257] | 7.00 to 8.00
COc1cc(F)c(Nc2nc(=O)cnn2Cc2cc(F)c(F)c(F)c2)cc1OC [Compound I-1258] | > 8.00
COc1ccc(Nc2nc(=O)c(C)nn2Cc2cc(F)c(F)c(F)c2)c(C)n1 [Compound I-1259] | 7.00 to 8.00
Cc1nc2cc(C)c(Nc3nc(=O)c(C)nn3Cc3cc(F)cc(F)c3)cc2s1 [Compound I-1260] | 7.00 to 8.00
Cc1nn(Cc2cc(F)c(F)c(F)c2)c(Nc2ccc3[nH]ccc3c2C)nc1=O [Compound I-1262] | > 8.00
COc1cc(C)c(Nc2nc(=O)c(Cl)nn2Cc2cc(F)c(F)c(F)c2)cc1OC [Compound I-1264] | > 8.00
COc1ccc(Nc2nc(=O)c(Cl)nn2Cc2cc(F)c(F)c(F)c2)c(C)c1 [Compound I-1265] | 7.00 to 8.00
COc1cc(C)c(Nc2nc(=O)c(C)nn2Cc2cc(F)c(F)c(F)c2)cc1OC [Compound I-1266] | 7.00 to 8.00
COc1ccc(Nc2nc(=O)cnn2Cc2ccc(Cl)c(F)c2)c(C)c1 [Compound I-1268] | 7.00 to 8.00
COc1ccc(Nc2nc(=O)cnn2Cc2cc(F)cc(Cl)c2)c(C)c1 [Compound I-1269] | 7.00 to 8.00
COc1ccc(Nc2nc(=O)cnn2Cc2ccc(F)c(Cl)c2)c(C)c1 [Compound I-1270] | > 8.00
COc1ccc(Nc2nc(=O)cnn2Cc2cc(F)cc(F)c2)c(C)c1 [Compound I-1271] | > 8.00
COc1ccc(Nc2nc(=O)cnn2Cc2ccc(F)c(F)c2)c(C)c1 [Compound I-1272] | > 8.00
COc1ccc(Nc2nc(=O)cnn2Cc2ccc(F)cc2)c(C)c1 [Compound I-1273] | > 8.00
COc1ccc(Nc2nc(=O)cnn2Cc2cccc(F)c2)c(C)c1 [Compound I-1274] | > 8.00
COc1ccc(Nc2nc(=O)cnn2Cc2ccccc2F)c(C)c1 [Compound I-1275] | 6.30 to 7.00
COc1ccc(Nc2nc(=O)cnn2Cc2ccccc2)c(C)c1 [Compound I-1276] | 7.00 to 8.00
COc1ccc(Nc2nc(=O)c(C)nn2Cc2cc(F)c(F)c(F)c2)c(C)c1 [Compound I-1277] | > 8.00
COc1cc(C)c(Nc2nc(=O)cnn2Cc2cc(F)c(F)c(F)c2)cc1Cl [Compound I-1278] | > 8.00
COc1cc(Nc2nc(=O)cnn2Cc2cc(F)c(F)c(F)c2)c(C)cc1Cl [Compound I-1279] | > 8.00
Cc1cc2c(cc1Nc1nc(=O)cnn1Cc1cc(F)c(F)c(F)c1)COC2 [Compound I-1280] | > 8.00
COc1ccc(C)c(Nc2nc(=O)cnn2Cc2cc(F)c(F)c(F)c2)c1 [Compound I-1282] | > 8.00
COc1ccc(Nc2nc(=O)cnn2Cc2cc(F)c(F)c(F)c2)c(C)c1 [Compound I-1283] | > 8.00
Cc1nc2cc(C)c(Nc3nc(=O)cnn3Cc3cc(F)c(F)c(F)c3)cc2s1 [Compound I-1284] | > 8.00
